Blank lines part the entries; values can stand above or below the molecule they belong to. Active and inactive are the calls of the source.
Legend:
[1] = reduction of Shn3 3'UTR firefly luciferase signal, dose response, Schnurri-3 inhibitor project, cell-based, Clone20 osteoblasts, cherry-pick, set 2 (AID 720490); assay type: functional;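 note: actives lower the luminescence signal as inhibitors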
[2] = HepG2 cell cytotoxicity, dose response, cytotoxicity control for Shn3 inhibitor project, CellTiter-Glo, cherry-picked (AID 624134); assay type: functional, cell-based
[3] = Shn3 3'UTR reporter inhibitors, dose response, cell-based, Clone20 osteoblasts, firefly luciferase, cherry-picked (AID 624132); assay type: functional;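 note: firefly luciferase luminescence from reporter carrying the Shn3 3'UTR in osteoblasts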
[4] = control 3'UTR Renilla luciferase suppression, dose response, counter-screen for Shn3 inhibitor project, cell-based, Clone20-Shn3RL, cherry-picked (AID 624133); assay type: functional
[5] = inhibitors of control Renilla luciferase reporter, dose response, counter-screen for Shn3 3'UTR targeting project, Clone20-Shn3RL cells, dual-Glo, cherry-pick, set 2 (AID 720724); assay type: functional, cell-based; conditions: Dual-Go Shn3RL
INS1 = assay: beta cell apoptosis inhibitors, cytokine rescue, dose response, luminescence, retest (AID 449756); assay type: functional, cell-based; conditions: Rattus norvegicus, INS1;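 note: cell death triggered by IL-1 beta plus TNF-alpha plus IFN-gamma mixture; protective hits raise ATP signal compared with cytokine alone wells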
[6] = HEK293T cytotoxicity, dose response, cytotoxicity control for miR-122 modulator project, cell-based, inhibitor set, cherry-pick, set 2 (AID 720697); assay type: functional
[7] = biological target: Induced myeloid leukemia cell differentiation protein Mcl-1 (Homo sapiens, UniProt Q07820); assay type: functional
[8] = biological target: 1-phosphatidylinositol 4,5-bisphosphate phosphodiesterase beta-3 (Homo sapiens, UniProt Q01970); assay: Fluorescence-based biochemical high throughput dose response assay to identify inhibitors of phospholipase C isozymes (PLC-B3).
[9] = biological target: 1-phosphatidylinositol 4,5-bisphosphate phosphodiesterase gamma-1 (Homo sapiens, UniProt P19174); assay: Counterscreen for inhibitors of phospholipase C isozymes (PLC-B3): Fluorescence-based biochemical high throughput dose response assay to identify inhibitors of phospholipase C isozymes (PLC-gamma1).
Vero = assay: Vero cell toxicity, dose response, cytotoxicity control, plate reader, cherry-pick samples (AID 687020); assay type: functional, cell-based; conditions: Chlorocebus sabaeus
[10] = biological target: T1, Beta-2 adrenergic receptor (Homo sapiens, UniProt P07550); assay: beta2AR agonists driving receptor internalization, dose response, cell-based, FAP fluorogen, flow cytometry, cherry pick 1 (AID 588763); assay type: functional
[11] = biological target: T1, Beta-2 adrenergic receptor; assay: Dose response for HTS for Beta-2AR agonists via FAP method from Powderset1.; assay type: functional
Mu-type opioid receptor = Mu-type opioid receptor (Homo sapiens, UniProt P35372); assay type: functional, cell-based;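 note: U2OS cells with beta-arrestin recruitment to OPRM1 by beta-gal complementation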
[12] = biological target: 5-hydroxytryptamine receptor 2A (Mus musculus, UniProt P35363); assay type: functional, cell-based;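 note: CHO-K1 cells with tagged receptor and beta-arrestin; agonist potency measured as compound-induced activation of the receptor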
cells [13] = conditions: HEK293
Galanin receptor type 3 = Galanin receptor type 3 (Homo sapiens, UniProt O60755); assay: Fluorescence-based cell-based primary high throughput dose response assay to identify antagonists of the Galanin Receptor 3 (GalR3).; assay type: functional
cells [14] = assay type: functional, cell-based; conditions: HEK-CNG
[15] = Counterscreen for […] of the human trace amine associated receptor 1 (TAAR1): Fluorescence-based cell-based high throughput dose response assay to identify nonselective Ga16 agonists.; assay type: functional
[16] = Counterscreen for antagonists of the human trace amine associated receptor 1 (hTAAR1): Fluorescence-based cell-based high throughput dose response assay to identify nonselective Ga16 antagonists.; assay type: functional
[17] = biological target: T2, Trace amine-associated receptor 1 (Homo sapiens, UniProt Q96RJ0); assay: Fluorescence-based cell-based high throughput dose response assay to identify antagonists of the human trace amine associated receptor 1 (TAAR1).; assay type: functional
T2 sequence (Q96RJ0 whole entry): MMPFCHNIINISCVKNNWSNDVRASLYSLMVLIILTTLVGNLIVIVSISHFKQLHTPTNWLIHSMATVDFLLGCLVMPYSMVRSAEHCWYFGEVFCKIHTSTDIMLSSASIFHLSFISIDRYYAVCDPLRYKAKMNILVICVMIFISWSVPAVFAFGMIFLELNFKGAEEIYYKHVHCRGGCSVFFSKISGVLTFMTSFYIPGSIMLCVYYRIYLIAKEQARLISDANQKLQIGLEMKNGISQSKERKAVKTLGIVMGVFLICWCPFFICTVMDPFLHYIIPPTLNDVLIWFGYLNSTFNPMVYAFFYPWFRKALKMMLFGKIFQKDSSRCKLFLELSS

[18] = biological target: T2, Trace amine-associated receptor 1; assay: Counterscreen for antagonists of the human trace amine associated receptor 1 (hTAAR1): Fluorescence-based cell-based high throughput dose response assay to identify TAAR1 Agonists.; assay type: functional
[19] = human group III sPLA2 inhibitors, dose response, biochemical, QFRET, IC50 (AID 743457);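 note: green fluorescence rise as the enzyme cleaves BODIPY PC-A2 in liposomes; potency for inhibition of the enzyme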
[20] = biological target: Alkaline phosphatase, placental type (Homo sapiens, UniProt P05187); assay: PLAP enzyme inhibitors, confirmation, biochemical, luminescence (AID 1512); assay type: functional
Alkaline phosphatase, placental type, sequence (P05187 whole entry): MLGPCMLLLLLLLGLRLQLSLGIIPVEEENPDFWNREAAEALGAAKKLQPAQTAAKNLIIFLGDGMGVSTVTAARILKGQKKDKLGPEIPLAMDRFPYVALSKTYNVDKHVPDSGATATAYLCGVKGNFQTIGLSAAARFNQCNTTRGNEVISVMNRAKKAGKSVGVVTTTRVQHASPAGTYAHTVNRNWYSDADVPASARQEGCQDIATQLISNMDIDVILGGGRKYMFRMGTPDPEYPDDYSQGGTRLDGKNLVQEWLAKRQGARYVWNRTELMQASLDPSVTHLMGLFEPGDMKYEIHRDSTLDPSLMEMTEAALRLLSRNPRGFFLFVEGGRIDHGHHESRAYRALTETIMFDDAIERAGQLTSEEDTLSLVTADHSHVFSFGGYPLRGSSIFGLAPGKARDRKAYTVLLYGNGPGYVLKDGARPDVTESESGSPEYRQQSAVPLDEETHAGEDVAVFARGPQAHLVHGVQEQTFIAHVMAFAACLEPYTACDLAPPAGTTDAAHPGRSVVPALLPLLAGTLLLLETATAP

T1 sequence (P07550 whole entry): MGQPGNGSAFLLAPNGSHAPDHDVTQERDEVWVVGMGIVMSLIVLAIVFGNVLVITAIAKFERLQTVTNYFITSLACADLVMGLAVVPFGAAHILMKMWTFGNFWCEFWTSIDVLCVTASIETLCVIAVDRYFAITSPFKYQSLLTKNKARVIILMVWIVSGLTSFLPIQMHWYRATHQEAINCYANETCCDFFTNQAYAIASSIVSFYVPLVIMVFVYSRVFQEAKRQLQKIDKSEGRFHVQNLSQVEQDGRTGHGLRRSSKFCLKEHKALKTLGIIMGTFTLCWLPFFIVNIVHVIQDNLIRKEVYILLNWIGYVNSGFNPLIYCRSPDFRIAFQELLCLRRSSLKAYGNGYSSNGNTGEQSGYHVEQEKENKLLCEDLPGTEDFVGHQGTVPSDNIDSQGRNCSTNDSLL
Galanin receptor type 3, sequence (O60755 whole entry): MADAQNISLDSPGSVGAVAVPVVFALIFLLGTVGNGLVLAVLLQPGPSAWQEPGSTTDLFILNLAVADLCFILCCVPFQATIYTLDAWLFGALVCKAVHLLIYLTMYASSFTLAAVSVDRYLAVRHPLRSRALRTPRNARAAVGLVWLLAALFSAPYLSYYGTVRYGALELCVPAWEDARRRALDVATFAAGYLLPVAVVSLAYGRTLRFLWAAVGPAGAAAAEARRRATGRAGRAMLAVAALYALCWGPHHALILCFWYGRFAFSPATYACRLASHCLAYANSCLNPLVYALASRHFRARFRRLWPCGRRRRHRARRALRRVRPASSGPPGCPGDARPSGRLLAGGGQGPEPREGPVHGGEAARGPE
Induced myeloid leukemia cell differentiation protein Mcl-1, sequence (Q07820 whole entry): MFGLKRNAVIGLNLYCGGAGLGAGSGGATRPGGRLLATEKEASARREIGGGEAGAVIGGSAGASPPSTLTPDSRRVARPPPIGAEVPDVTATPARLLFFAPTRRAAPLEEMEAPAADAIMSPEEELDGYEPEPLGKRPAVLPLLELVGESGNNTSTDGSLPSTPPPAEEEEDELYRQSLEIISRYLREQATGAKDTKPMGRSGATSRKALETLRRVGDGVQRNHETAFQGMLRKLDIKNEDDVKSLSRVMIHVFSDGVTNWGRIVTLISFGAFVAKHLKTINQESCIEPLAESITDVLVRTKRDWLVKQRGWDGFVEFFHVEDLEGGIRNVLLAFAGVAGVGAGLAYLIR
Mu-type opioid receptor, sequence (P35372 whole entry): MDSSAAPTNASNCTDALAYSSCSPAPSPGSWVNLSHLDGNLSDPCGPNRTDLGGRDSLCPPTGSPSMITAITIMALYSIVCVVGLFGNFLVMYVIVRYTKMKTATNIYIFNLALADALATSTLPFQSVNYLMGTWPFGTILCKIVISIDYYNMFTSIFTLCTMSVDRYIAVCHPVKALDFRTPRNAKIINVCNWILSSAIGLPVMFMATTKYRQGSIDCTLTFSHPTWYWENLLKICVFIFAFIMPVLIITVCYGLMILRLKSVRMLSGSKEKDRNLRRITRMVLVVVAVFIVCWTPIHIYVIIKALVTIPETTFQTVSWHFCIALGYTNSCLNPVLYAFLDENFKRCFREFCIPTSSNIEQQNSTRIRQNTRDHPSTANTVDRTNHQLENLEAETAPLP
1-phosphatidylinositol 4,5-bisphosphate phosphodiesterase beta-3, sequence (Q01970 whole entry): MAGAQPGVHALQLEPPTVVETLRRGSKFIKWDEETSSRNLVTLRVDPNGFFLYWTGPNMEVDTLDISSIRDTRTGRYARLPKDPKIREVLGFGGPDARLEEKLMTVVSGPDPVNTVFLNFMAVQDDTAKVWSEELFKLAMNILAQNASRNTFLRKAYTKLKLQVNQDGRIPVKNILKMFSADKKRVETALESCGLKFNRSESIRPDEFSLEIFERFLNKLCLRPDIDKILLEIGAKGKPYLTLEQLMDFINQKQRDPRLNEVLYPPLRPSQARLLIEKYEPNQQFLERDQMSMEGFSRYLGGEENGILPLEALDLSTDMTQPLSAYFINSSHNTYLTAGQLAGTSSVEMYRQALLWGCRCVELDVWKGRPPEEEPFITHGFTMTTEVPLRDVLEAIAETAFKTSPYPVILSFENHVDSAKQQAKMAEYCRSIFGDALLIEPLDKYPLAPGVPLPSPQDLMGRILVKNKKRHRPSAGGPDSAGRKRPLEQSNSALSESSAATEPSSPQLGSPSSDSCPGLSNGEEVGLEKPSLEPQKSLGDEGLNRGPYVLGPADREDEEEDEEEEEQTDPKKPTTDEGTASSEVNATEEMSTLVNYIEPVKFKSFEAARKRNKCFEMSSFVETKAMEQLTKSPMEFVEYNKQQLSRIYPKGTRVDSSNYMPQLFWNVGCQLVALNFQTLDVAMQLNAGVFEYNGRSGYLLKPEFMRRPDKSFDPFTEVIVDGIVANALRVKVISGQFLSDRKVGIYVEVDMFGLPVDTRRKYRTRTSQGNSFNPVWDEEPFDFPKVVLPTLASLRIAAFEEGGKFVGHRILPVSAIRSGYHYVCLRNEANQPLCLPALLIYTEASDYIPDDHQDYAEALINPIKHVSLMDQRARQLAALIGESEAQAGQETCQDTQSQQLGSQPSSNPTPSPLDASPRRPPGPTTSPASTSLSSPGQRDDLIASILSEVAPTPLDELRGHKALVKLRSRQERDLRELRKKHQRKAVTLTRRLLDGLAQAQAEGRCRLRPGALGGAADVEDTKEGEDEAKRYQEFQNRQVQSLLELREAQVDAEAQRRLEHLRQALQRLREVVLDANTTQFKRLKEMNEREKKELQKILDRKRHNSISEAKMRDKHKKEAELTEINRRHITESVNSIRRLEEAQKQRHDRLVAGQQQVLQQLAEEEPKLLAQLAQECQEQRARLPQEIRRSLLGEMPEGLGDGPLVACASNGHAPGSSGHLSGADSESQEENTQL
5-hydroxytryptamine receptor 2A, sequence (P35363 whole entry): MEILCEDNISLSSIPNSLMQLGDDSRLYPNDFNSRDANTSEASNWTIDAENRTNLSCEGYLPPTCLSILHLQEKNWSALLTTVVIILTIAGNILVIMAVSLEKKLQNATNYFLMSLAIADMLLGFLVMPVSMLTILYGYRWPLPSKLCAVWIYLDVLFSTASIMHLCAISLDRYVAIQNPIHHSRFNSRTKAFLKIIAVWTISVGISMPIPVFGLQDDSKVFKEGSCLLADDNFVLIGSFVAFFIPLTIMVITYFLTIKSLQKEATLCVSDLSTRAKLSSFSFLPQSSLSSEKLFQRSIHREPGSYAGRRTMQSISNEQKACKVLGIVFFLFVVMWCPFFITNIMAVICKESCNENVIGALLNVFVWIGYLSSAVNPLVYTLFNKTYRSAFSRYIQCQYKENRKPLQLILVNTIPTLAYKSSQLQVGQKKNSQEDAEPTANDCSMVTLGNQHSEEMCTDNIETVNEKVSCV

Structure (SMILES): CC(=O)N1c2ccc(S(=O)(=O)N3CCC(C(=O)N4CCN(c5cccc(C(F)(F)F)c5)CC4)CC3)cc2CC1C (centres undefined)
AC50 [1]: 1.54 µM (active) | AC50 [2]: > 70 µM (inactive) | AC50 [3]: 1.28 µM (active) | AC50 [4]: 4.45 µM (active) | AC50 [5]: 1.47 µM (active) | AC50 (INS1): 7.43 µM (active)

Structure (SMILES): CN1CCN(c2ccc(Cl)cc2NC(=O)c2ccc(S(=O)(=O)N3CCCCCC3)cc2)CC1
AC50 [6]: 5.58 µM (active) | IC50 [7]: 3.55 µM (active)

IC50 [8]: > 122 µM (inactive) | IC50 [9]: 56.9 µM (inactive)
Structure (SMILES): O=C(C[S+]([O-])c1cccc(C(F)(F)F)c1)Nc1ccc(Cl)cc1Cl (centres undefined)

Structure (SMILES): Cc1cc(C)n2c(Nc3c(C)cccc3C)c(CCc3ccccc3)nc2n1
AC50 (Vero): 33.3 µM (active)

EC50 [10]: 0.0672 µM (active) | EC50 [11]: 0.0199 µM (active)
Structure (SMILES): CC(C)(C)c1ccc(OCC(=O)Nc2ccc(-c3nc4cccnc4o3)cc2)cc1

EC50 (Mu-type opioid receptor): 92.5 µM (inactive) | EC50 [12]: 76.1 µM (inactive)
Structure (SMILES): OCC1(Cc2ccc(Cl)cc2)CCN(CCCc2ccccc2)CC1

Structure (SMILES): CC1CCN(C(=O)COc2cccc3c2CCN(Cc2ccccc2)C3=O)CC1
AC50 (cells [13]): 28.7 µM (active)

Structure (SMILES): CNc1ccccc1C(C)(C)c1cc(-c2ccc(F)cc2)no1
IC50 (Galanin receptor type 3): 3.74 µM (active) | EC50 (cells [14]): > 29.9 µM (inactive)

Structure (SMILES): CCOC(=O)C1CCCN(c2c(C(=O)c3ccccc3)cnc3ccc(OC)cc23)C1 (centres undefined)
EC50 [15]: > 29.9 µM (inactive) | IC50 [16]: > 29.9 µM (inactive) | IC50 [17]: 4.06 µM (active) | EC50 [18]: 11.6 µM (inactive)

IC50 [19]: > 122 µM (inactive) | IC50 [20]: > 100 µM (inactive)
Structure (SMILES): COc1ccccc1N=C(S)NNC(=O)c1nn(C)c(C)c1Br

From ChEMBL document CHEMBL1201862, “PubChem BioAssay data set” (2004)
